Laboratory results reported in the NIST ThermoML archive (doi:10.1021/acs.jced.5b01057).

Key:
[1] = Crystal; visual observation
[2] = mn = molality of the nth substance listed, in mol/kg; conditions: for surface tension liquid-gas: Pendant drop shape; for electrical conductivity: 100 kPa, Liquid, Alternating current cell with electrodes

CCCCCCCCCCCCNC1O[C@H](CO)[C@@H](O[C@@H]2O[C@H](CO)[C@H](O)[C@H](O)[C@H]2O)[C@H](O)[C@H]1O (some centres undefined) [N-dodecyllactosylamine]
Conditions | Triple point temperature [K]
[1] | 398.65

CCCCCCCCCCCC[NH2+]C1O[C@H](CO)[C@@H](O[C@@H]2O[C@H](CO)[C@H](O)[C@H](O)[C@H]2O)[C@H](O)[C@H]1O.CCCCCCCCCCCC[NH2+]C1O[C@H](CO)[C@@H](O[C@@H]2O[C@H](CO)[C@H](O)[C@H](O)[C@H]2O)[C@H](O)[C@H]1O.O=C([O-])CCCCC(=O)[O-] (some centres undefined) [N-dodecyllactosylammonium hexanedioate] + O
[2]
Conditions | electrical conductivity [S/m] | surface tension liquid-gas [mN/m]
298.15 K, m1 = 0.0005 | – | 65.42
298.15 K, m1 = 0.001 | – | 57.54
298.15 K, m1 = 0.0015 | – | 52.44
298.15 K, m1 = 0.00159 | 0.00604 | –
298.15 K, m1 = 0.002 | – | 48.72
298.15 K, m1 = 0.0025 | – | 46.11
298.15 K, m1 = 0.003 | – | 43.65
298.15 K, m1 = 0.00317 | 0.0113 | –
298.15 K, m1 = 0.00396 | 0.0137 | –
298.15 K, m1 = 0.004 | – | 39.6
298.15 K, m1 = 0.00474 | 0.0159 | –
298.15 K, m1 = 0.005 | – | 36.39
298.15 K, m1 = 0.00552 | 0.0182 | –
298.15 K, m1 = 0.006 | – | 34.24
298.15 K, m1 = 0.0063 | 0.0212 | –
298.15 K, m1 = 0.007 | – | 33.1
298.15 K, m1 = 0.00707 | 0.023 | –
323.15 K, m1 = 0.0004 | – | 62.97
323.15 K, m1 = 0.0006 | – | 58.09
323.15 K, m1 = 0.001 | – | 52.58
323.15 K, m1 = 0.0014 | – | 47.88
323.15 K, m1 = 0.00159 | 0.00898 | –
323.15 K, m1 = 0.002 | – | 43.86
323.15 K, m1 = 0.0024 | – | 41.18
323.15 K, m1 = 0.003 | – | 38.37
323.15 K, m1 = 0.00317 | 0.0165 | –
323.15 K, m1 = 0.004 | – | 35.16
323.15 K, m1 = 0.00474 | 0.0258 | –
323.15 K, m1 = 0.005 | – | 32.73
323.15 K, m1 = 0.0063 | 0.0334 | –

O [water] + CCCCCCCCCCCC[NH2+]C1O[C@H](CO)[C@@H](O[C@@H]2O[C@H](CO)[C@H](O)[C@H](O)[C@H]2O)[C@H](O)[C@H]1O.CCCCCCCCCCCC[NH2+]C1O[C@H](CO)[C@@H](O[C@@H]2O[C@H](CO)[C@H](O)[C@H](O)[C@H]2O)[C@H](O)[C@H]1O.O=C([O-])CCCCC(=O)[O-]
[2], m2 = 0
Conditions | surface tension liquid-gas [mN/m]
298.15 K | 72.71
323.15 K | 68.94

O [water] + CCCCCC(=O)[O-].CCCCCCCCCCCC[NH2+]C1O[C@H](CO)[C@@H](O[C@@H]2O[C@H](CO)[C@H](O)[C@H](O)[C@H]2O)[C@H](O)[C@H]1O
[2], 323.15 K, m2 = 0
Conditions | electrical conductivity [S/m] | surface tension liquid-gas [mN/m]
– | 0.000255 | 68.72

O [water] + CCC(=O)[O-].CCCCCCCCCCCC[NH2+]C1O[C@H](CO)[C@@H](O[C@@H]2O[C@H](CO)[C@H](O)[C@H](O)[C@H]2O)[C@H](O)[C@H]1O
[2], 323.15 K, m2 = 0
Conditions | electrical conductivity [S/m] | surface tension liquid-gas [mN/m]
– | 0.0001534 | 68.57

O [water] + CCCCCCCCCCCC[NH2+]C1O[C@H](CO)[C@@H](O[C@@H]2O[C@H](CO)[C@H](O)[C@H](O)[C@H]2O)[C@H](O)[C@H]1O.CCCCCCCCCCCC[NH2+]C1O[C@H](CO)[C@@H](O[C@@H]2O[C@H](CO)[C@H](O)[C@H](O)[C@H]2O)[C@H](O)[C@H]1O.O=C([O-])CC(=O)[O-]
[2], m2 = 0
Conditions | surface tension liquid-gas [mN/m]
298.15 K | 71.76
323.15 K | 68.05

CCCCCC(=O)[O-].CCCCCCCCCCCC[NH2+]C1O[C@H](CO)[C@@H](O[C@@H]2O[C@H](CO)[C@H](O)[C@H](O)[C@H]2O)[C@H](O)[C@H]1O (some centres undefined) [N-dodecyllactosylammonium hexanoate] + O
[2], 323.15 K
Conditions | electrical conductivity [S/m] | surface tension liquid-gas [mN/m]
m1 = 0.4 | 0.001851 | 58.74
m1 = 0.6 | – | 52.11
m1 = 0.79 | 0.00335 | –
m1 = 0.8 | – | 48.69
m1 = 1 | – | 45.57
m1 = 1.19 | 0.0048 | –
m1 = 1.57 | 0.00609 | –
m1 = 1.6 | – | 37.41
m1 = 1.96 | 0.00734 | –
m1 = 2 | – | 34.64
m1 = 2.34 | 0.00864 | –
m1 = 2.4 | – | 32.22
m1 = 2.72 | 0.00986 | –
m1 = 3 | – | 30.32
m1 = 3.1 | 0.01083 | –

CCCCCCCCCCCC[NH2+]C1O[C@H](CO)[C@@H](O[C@@H]2O[C@H](CO)[C@H](O)[C@H](O)[C@H]2O)[C@H](O)[C@H]1O.CCCCCCCCCCCC[NH2+]C1O[C@H](CO)[C@@H](O[C@@H]2O[C@H](CO)[C@H](O)[C@H](O)[C@H]2O)[C@H](O)[C@H]1O.O=C([O-])CC(=O)[O-] (some centres undefined) [N-dodecyllactosylammonium propanedioate] + O
[2]
Conditions | electrical conductivity [S/m] | surface tension liquid-gas [mN/m]
298.15 K, m1 = 0.0005 | – | 68.12
298.15 K, m1 = 0.001 | – | 61.14
298.15 K, m1 = 0.0015 | – | 55.99
298.15 K, m1 = 0.00159 | 0.00597 | –
298.15 K, m1 = 0.002 | – | 51.91
298.15 K, m1 = 0.0025 | – | 47.5
298.15 K, m1 = 0.003 | – | 44.9
298.15 K, m1 = 0.00317 | 0.0115 | –
298.15 K, m1 = 0.004 | – | 40.37
298.15 K, m1 = 0.00474 | 0.0168 | –
298.15 K, m1 = 0.005 | – | 35.39
298.15 K, m1 = 0.00552 | 0.0194 | –
298.15 K, m1 = 0.006 | – | 32.88
298.15 K, m1 = 0.0063 | 0.0227 | –
298.15 K, m1 = 0.007 | – | 30.63
298.15 K, m1 = 0.00707 | 0.0251 | –
298.15 K, m1 = 0.00784 | 0.0271 | –
298.15 K, m1 = 0.008 | – | 28.97
298.15 K, m1 = 0.00861 | 0.0288 | –
323.15 K, m1 = 0.0004 | – | 65.73
323.15 K, m1 = 0.0006 | – | 62.69
323.15 K, m1 = 0.0008 | – | 59.26
323.15 K, m1 = 0.001 | – | 56.85
323.15 K, m1 = 0.0014 | – | 52.69
323.15 K, m1 = 0.00159 | 0.00958 | –
323.15 K, m1 = 0.002 | – | 47.4
323.15 K, m1 = 0.0024 | – | 44.7
323.15 K, m1 = 0.003 | – | 41.32
323.15 K, m1 = 0.00317 | 0.0164 | –
323.15 K, m1 = 0.004 | – | 37.19
323.15 K, m1 = 0.00474 | 0.0257 | –
323.15 K, m1 = 0.005 | – | 33.3
323.15 K, m1 = 0.006 | – | 30.53
323.15 K, m1 = 0.0063 | 0.0329 | –
323.15 K, m1 = 0.007 | – | 28.43
323.15 K, m1 = 0.00784 | 0.0387 | –
323.15 K, m1 = 0.008 | – | 26.79

CCC(=O)[O-].CCCCCCCCCCCC[NH2+]C1O[C@H](CO)[C@@H](O[C@@H]2O[C@H](CO)[C@H](O)[C@H](O)[C@H]2O)[C@H](O)[C@H]1O (some centres undefined) [N-dodecyllactosylammonium propanoate] + O
[2], 323.15 K
Conditions | electrical conductivity [S/m] | surface tension liquid-gas [mN/m]
m1 = 0.2 | 0.001042 | 67.63
m1 = 0.3 | – | 63.03
m1 = 0.4 | 0.001921 | 58.77
m1 = 0.5 | – | 53.31
m1 = 0.6 | 0.00272 | 50.73
m1 = 0.7 | – | 45.91
m1 = 0.79 | 0.00355 | –
m1 = 0.8 | – | 42.76
m1 = 0.9 | – | 39.81
m1 = 0.99 | 0.00435 | –
m1 = 1 | – | 37.73
m1 = 1.1 | – | 35.61
m1 = 1.19 | 0.00512 | –
m1 = 1.2 | – | 34.86
